Measured values from ChEMBL document CHEMBL6092168, “Identification of novel indolinone derivatives as CTSC inhibitors to treat inflammatory bowel disease by modulating inflammatory factors” (Eur J Med Chem, 2024).
Active and inactive are the calls of the source. No cut-off for these calls is given here.

Tests used:
[1] = molecular target: T1, Neutrophil elastase (Homo sapiens) (UniProt P08246); experiment: Inhibition of neutrophil elastase in human U-937 cells using N-MeSuc-Ala-Pro-Val-pNA as substrate at 10 uM incubated for 5 days by […] based microplate reader analysis relative to control; format: cell-based; conditions: time 5.0 day
T1 sequence (whole entry): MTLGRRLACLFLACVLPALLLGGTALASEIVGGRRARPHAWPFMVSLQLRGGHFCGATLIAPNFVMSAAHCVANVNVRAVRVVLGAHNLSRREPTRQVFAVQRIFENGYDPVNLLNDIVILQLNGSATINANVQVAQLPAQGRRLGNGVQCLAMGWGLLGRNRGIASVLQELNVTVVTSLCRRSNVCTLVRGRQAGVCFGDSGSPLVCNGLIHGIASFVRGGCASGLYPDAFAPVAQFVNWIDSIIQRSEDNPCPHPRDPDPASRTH

RAW264.7 [2] = experiment: Anti-inflammatory activity in mouse RAW264.7 cells assessed as inhibition of LPS-induced IL-1beta production at 5 uM preincubated for 1 hr followed by LPS addition and measured after 24 hrs by ELISA relative to control; format: functional; parameters: scale not given: the % may be the effect or the level left; conditions: time 25 hrs
Dipeptidyl peptidase 1 = Dipeptidyl peptidase 1 (Homo sapiens, UniProt P53634); experiment: Inhibition of Cathepsin C in human U-937 cells using H-Gly-Arg-AMC as substrate at 10 uM incubated for 5 days by fluorescence based microplate reader analysis relative to control; format: cell-based; conditions: time 5.0 day
Sequence of Dipeptidyl peptidase 1 (P53634 25-134 limits assumed): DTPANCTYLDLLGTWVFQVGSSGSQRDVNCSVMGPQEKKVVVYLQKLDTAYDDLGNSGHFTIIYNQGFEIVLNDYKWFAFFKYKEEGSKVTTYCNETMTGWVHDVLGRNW
Sequence of Dipeptidyl peptidase 1 (P53634 231-394 limits assumed): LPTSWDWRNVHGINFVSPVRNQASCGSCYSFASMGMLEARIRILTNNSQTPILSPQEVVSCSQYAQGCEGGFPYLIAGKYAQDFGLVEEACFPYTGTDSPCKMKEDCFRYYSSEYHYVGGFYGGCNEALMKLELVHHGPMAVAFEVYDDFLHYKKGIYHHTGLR
Sequence of Dipeptidyl peptidase 1 (P53634 395-463 limits assumed): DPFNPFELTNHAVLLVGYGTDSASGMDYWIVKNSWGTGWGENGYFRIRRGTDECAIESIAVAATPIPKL

Mus musculus [3] = experiment: Anti-inflammatory activity in DSS-induced ulcerative colitis C57BL/6 mouse model assessed as effect on neutrophil serine proteases level at 60 mg/kg, administered twice daily; format: functional, organism-based
RAW264.7 [4] = experiment: Anti-inflammatory activity in mouse RAW264.7 cells assessed as inhibition of LPS-induced NO production preincubated for 1 hr followed by LPS addition and measured after 24 hrs by Griess reagent based assay; format: functional, cell-based
[5] = molecular target: T2, Cathepsin G (Homo sapiens) (UniProt P08311); experiment: Inhibition of Cathepsin G in human U-937 cells using N-Suc-Ala-Ala-Pro-Phe-pNA as substrate at 10 uM incubated for 5 days by […] based microplate reader analysis relative to control; format: cell-based; conditions: time 5.0 day
T2 sequence (whole entry): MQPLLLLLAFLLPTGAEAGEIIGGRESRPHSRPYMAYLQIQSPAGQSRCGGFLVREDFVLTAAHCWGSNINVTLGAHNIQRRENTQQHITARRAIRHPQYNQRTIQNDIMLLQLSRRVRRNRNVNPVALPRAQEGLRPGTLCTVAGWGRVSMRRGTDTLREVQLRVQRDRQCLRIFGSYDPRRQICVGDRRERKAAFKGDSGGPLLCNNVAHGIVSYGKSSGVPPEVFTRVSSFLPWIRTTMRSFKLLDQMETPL

Mus musculus [6] = experiment: Anti-inflammatory activity in DSS-induced ulcerative colitis C57BL/6 mouse model assessed as effect on Cathepsin C activity at 60 mg/kg, administered twice daily; format: functional, organism-based
[7] = molecular target: T3, Myeloblastin (Homo sapiens) (UniProt P24158); experiment: Inhibition of proteinase 3 in human U-937 cells using aminobenzoyl-Val-Ala-Asp-Cys-Ala-Asp-Gln-ethylenediamine 2,4-dinitrophenyl as substrate at 10 uM incubated for 5 days by fluorescence based microplate reader analysis relative to control; format: cell-based; conditions: time 5.0 day
T3 sequence (whole entry): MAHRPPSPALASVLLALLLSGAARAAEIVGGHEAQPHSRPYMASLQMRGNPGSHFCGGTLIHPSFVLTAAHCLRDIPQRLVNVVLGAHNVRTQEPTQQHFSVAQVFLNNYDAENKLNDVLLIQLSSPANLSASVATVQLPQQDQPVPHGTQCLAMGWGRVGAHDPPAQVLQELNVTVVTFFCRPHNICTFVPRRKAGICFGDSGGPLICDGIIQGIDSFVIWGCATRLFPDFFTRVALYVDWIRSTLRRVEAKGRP

RAW264.7 [8] = experiment: Anti-inflammatory activity in mouse RAW264.7 cells assessed as inhibition of LPS-induced TNF-alpha production at 5 uM preincubated for 1 hr followed by LPS addition and measured after 24 hrs by ELISA relative to control; format: functional; parameters: scale not given: the % may be the effect or the level left; conditions: time 25 hrs

- inhibition [1]: 8.29%
- inhibition (Dipeptidyl peptidase 1): 10.1%
- IC50 (RAW264.7 [4]): 6.7 µM
- inhibition [5]: 12.1%
- inhibition [7]: 16.7%
Structure (SMILES): Cn1c(=O)oc2ccc(-c3ccc(C[C@@H](C#N)NC(=O)[C@@H]4CNCCCO4)cc3)cc21 [BRENSOCATIB]
- Activity (RAW264.7 [2]): 70.9%
- Activity (Mus musculus [3]): Active
- Activity (Mus musculus [6]): Active
- Activity (RAW264.7 [8]): 65.1%
